Common to all, as to assay type: cell-based
Test [1] has as its system Staphylococcus aureus (CP and PC resistant). The test is described as follows: Minimal inhibitory concentration. The conditions noted are these: I B: Staphylococcus aureus (CP and PC resistant). The source says:
(§1) Minimal inhibitory concentrations of various microorganisms mcg/ml
1 B Staphylococcus aureus

For test [2], the system named is Proteus vulgaris. The test is described as follows: Minimal inhibitory concentration. The settings on record: V: Proteus vulgaris; read-out: Minimal inhibitory concentration.
Source text: as §1

In test [3] the test system is E. coli NIHJ. The test is described as follows: Minimal inhibitory concentration. The settings on record: Escherichia coli; II A: E. coli NIHJ.
Source text: as §1

The subject of test [4] is Staphylococcus aureus 209p. Description: Minimal inhibitory concentration. The conditions noted are these: I A: Staphylococcus aureus 209p; read-out: Minimal inhibitory concentration.
Source text: as §1
1 A Staphylococcus aureus 209p

The test system of test [5] is Shigella flexneri Komagome. Description: Minimal inhibitory concentration. The settings on record: read-out: Minimal inhibitory concentration.
Source text: as §1
III Shigella flexneri Komagome

For test [6], the system named is Salmonella enteritidis Gaertner. Description: Minimal inhibitory concentration. The conditions noted are these: Salmonella enterica; VI: Salmonella enteritidis Gaertner; read-out: Minimal inhibitory concentration.
Source text: as §1
VI Salmonella enteritidis Gaertner

The subject of test [7] is Klebsiella neumoniae 806. Description: Minimal inhibitory concentration. The settings on record: IV A: Klebsiella neumoniae 806; read-out: Minimal inhibitory concentration.
Source text: as §1
IV A Klebsiella neumoniae 806

Test [8] relates to broad pathogenic microorganisms. Description: antimicrobial activity. The conditions noted are these: result in words.
Test [9] concerns Klebsiella neumoniae 846 (CER resistant). The test is described as follows: Minimal inhibitory concentration. The conditions noted are these: IV B: Klebsiella neumoniae 846 (CER resistant).
Source text: as §1
IV B Klebsiella neumoniae 846 (CER resistant)

The test system of test [10] is E. coli 609 (CER resistant). The test is described as follows: Minimal inhibitory concentration. The conditions noted are these: Escherichia coli, read-out: Minimal inhibitory concentration.
Source text: as §1
II B E. coli 609 (CER resistant)

Where [11] appears, read: III: Shigella flexneri Komagome.
[12] abbreviates: II B: E. coli 609 (CER resistant).

Each structure is given as a SMILES string. ≈ marks a conversion by molar mass, not a printed value. Read-outs that look alike come from different tables or passages of the source. Bounds are passed on as bounds.

Regarding `CO[C@@]1(NC(=O)CSc2nnc[nH]2)C(=O)N2C(C(=O)O)=C(COC(N)=O)CS[C@@H]21` [7β-(1,2,4-triazol-4H-3-yl)thioacetamido-7α-methoxy-3-carbamoyloxymethyl-3-cephem-4-carboxylic acid], the MIC in test [1] came out at 6.2 µg/mL (≈ 13.9 µM); in test [2], 25 µg/mL (≈ 56.2 µM); in [3] it was 6.2 µg/mL (≈ 13.9 µM); in test [4], 1.5 µg/mL (≈ 3.37 µM); in [5] (setting [11]), 12.5 µg/mL (≈ 28.1 µM); in [6], 6.2 µg/mL (≈ 13.9 µM). Also, the MIC in test [7] was 6.2 µg/mL (≈ 13.9 µM); in test [9] it was over 400 µg/mL; in [10], 12.5 µg/mL (≈ 28.1 µM). The “antimicrobial activity against broad pathogenic microorganisms” value (from here on “antimicrobial activity”) in test [8] was “excellent antimicrobial activity”.
As to `CO[C@@]1(NC(=O)CSCN=[N+]=[N-])C(=O)N2C(C(=O)O)=C(COC(C)=O)CS[C@@H]21` [7β-azidomethylthioacetamido-7α-methoxy-3-acetoxymethyl-3-cephem-4-carboxylic acid], the MIC in [1] amounted to 0.8 µg/mL (≈ 1.85 µM); in [2] it was 3.1 µg/mL (≈ 7.19 µM); in [3], 6.2 µg/mL (≈ 14.4 µM); in test [4], 0.4 µg/mL (≈ 0.927 µM); in test [5] (setting [11]), 6.2 µg/mL (≈ 14.4 µM); in test [6], 1.5 µg/mL (≈ 3.48 µM). The MIC in [7] is 6.2 µg/mL (≈ 14.4 µM); in test [9], over 200 µg/mL; in test [10] (setting [12]), 6.2 µg/mL (≈ 14.4 µM). In test [8], the “antimicrobial activity” value is listed as “excellent antimicrobial activity”.
Turning to `CO[C@@]1(NC(=O)CSc2nncs2)C(=O)N2C(C(=O)O)=C(COC(C)=O)CS[C@@H]21` [7β-(1,3,4-thiadiazol-2-yl)thioacetamido-7α-methoxy-3-acetoxymethyl-3-cephem-4-carboxylic acid], the MIC in [1] amounted to 1.5 µg/mL (≈ 3.26 µM); in test [2], 6.2 µg/mL (≈ 13.5 µM); in test [3] it was 3.1 µg/mL (≈ 6.73 µM); in [4], 0.8 µg/mL (≈ 1.74 µM); in test [5] (setting [11]), 6.2 µg/mL (≈ 13.5 µM); in test [6], 3.4 µg/mL (≈ 7.38 µM). The MIC was 3.1 µg/mL (≈ 6.73 µM) in test [7], over 400 µg/mL in test [9] and 6.2 µg/mL (≈ 13.5 µM) in [10] (setting [12]). The “antimicrobial activity” value in test [8] is listed as “excellent antimicrobial activity”.
As to `C#CCSCC(=O)N[C@]1(OC)C(=O)N2C(C(=O)O)=C(COC(N)=O)CS[C@@H]21` [7β-propargylthioacetamido-7α-methoxy-3-carbamoyloxymethyl-3-cephem-4-carboxylic acid], the MIC in test [1] stood at 1.5 µg/mL (≈ 3.61 µM); in test [2] it was 6.2 µg/mL (≈ 14.9 µM); in test [3] it was 3.1 µg/mL (≈ 7.46 µM); in test [4], 0.8 µg/mL (≈ 1.93 µM); in test [5] (Shigella flexneri), 6.2 µg/mL (≈ 14.9 µM); in test [6], 1.5 µg/mL (≈ 3.61 µM). Further, the MIC was 3.1 µg/mL (≈ 7.46 µM) in test [7], over 400 µg/mL in [9] and 3.1 µg/mL (≈ 7.46 µM) in test [10] (setting [12]). Further, in test [8], the “antimicrobial activity” value was “excellent antimicrobial activity”.
Regarding `CO[C@@]1(NC(=O)CSc2nnc(C)s2)C(=O)N2C(C(=O)O)=C(COC(N)=O)CS[C@@H]21` [7β-(5-methyl-1,3,4-thiadiazol-2-yl)thioacetamido-7α-methoxy-3-carbamoyloxymethyl-3-cephem-4-carboxylic acid], the MIC was 3.1 µg/mL (≈ 6.52 µM) in test [1]; 6.2 µg/mL (≈ 13 µM) in test [2]; 6.2 µg/mL (≈ 13 µM) in test [3]; 0.8 µg/mL (≈ 1.68 µM) in [4]; 12.5 µg/mL (≈ 26.3 µM) in [5] (setting [11]); 3.1 µg/mL (≈ 6.52 µM) in test [6]. For the same compound, the MIC in test [7] was 6.2 µg/mL (≈ 13 µM); in test [9], over 200 µg/mL; in test [10] (setting [12]), 6.2 µg/mL (≈ 13 µM). For the same compound, in test [8], the “antimicrobial activity” value is “excellent antimicrobial activity”.
For the compound `CO[C@@]1(NC(=O)CSc2nncs2)C(=O)N2C(C(=O)O)=C(CSc3nnnn3C)CS[C@@H]21` [7β-(1,3,4-thiadiazol-2-yl)thioacetamido-7α-methoxy-3-(1-methyl-1H-tetrazol-5-yl)thiomethyl-3-cephem-4-carboxylic acid], the MIC in test [1] was found to be 0.8 µg/mL (≈ 1.55 µM); in test [2], 3.1 µg/mL (≈ 6 µM); in test [3], 1.5 µg/mL (≈ 2.9 µM); in [4] it was 0.4 µg/mL (≈ 0.774 µM); in test [5] (setting [11]), 1.5 µg/mL (≈ 2.9 µM); in test [6], 0.8 µg/mL (≈ 1.55 µM). In addition, the results for the MIC in test [7], in [9] and in [10] (setting [12]) were 1.5 µg/mL (≈ 2.9 µM), over 200 µg/mL and 1.5 µg/mL (≈ 2.9 µM), respectively. In addition, in test [8], the “antimicrobial activity” value is listed as “excellent antimicrobial activity”.
For the compound `CO[C@@]1(NC(=O)CSc2nncs2)C(=O)N2C(C(=O)O)=C(COC(N)=O)CS[C@@H]21` [7β-(1,3,4-thiadiazol-2-yl)thioacetamido-7α-methoxy-3-carbamoyloxymethyl-3-cephem-4-carboxylic acid], the MIC in test [1] is 1.5 µg/mL (≈ 3.25 µM); in [2], 6.2 µg/mL (≈ 13.4 µM); in test [3], 3.1 µg/mL (≈ 6.72 µM); in test [4], 0.4 µg/mL (≈ 0.867 µM); in test [5] (setting [11]), 3.1 µg/mL (≈ 6.72 µM); in [6] it was 1.5 µg/mL (≈ 3.25 µM). Further, the MIC in [7] is 3.1 µg/mL (≈ 6.72 µM); in test [9], over 400 µg/mL; in test [10] (setting [12]), 3.1 µg/mL (≈ 6.72 µM). Besides, the “antimicrobial activity” value in test [8] is on record as “excellent antimicrobial activity”.

Source of the values: patent US3960845A, “Process for preparing 7β-acylamino-7α-alkoxycephalosporins or 6β-acylamino-6α-alkoxypenicillins” (Sankyo Company Limited, priority 1974, dated 1976).
